Data on one compound can be found in article PMC12369479 (Journal of Experimental Botany, 2025).

Assay [1] addresses ZmADK2 and PpADK1. Briefly: Binding affinity by MST (summary for both enzymes). Also on record: species or system Zea mays, Physcomitrella patens. To be noted: range over ZmADK2 and PpADK1. The procedure: The microscale thermophoresis (MST) method was used to determine the binding affinity of various ribosides for ZmADK2 and PpADK1. Proteins were fluorescently labeled with RED-tris-NTA dye (www.nanotemper-technologies.com) using a 1:1 dye/protein molar ratio. The labeled protein was adjusted to 100–300 nM in 50 mM HEPES buffer pH 7.5, 1 mM MgCl2, and 0.2% Tween. Measurements were performed in premium capillaries on a Monolith NT.115 instrument at 30 °C with 5 s/30 s/5 s laser off/on/off times, respectively, with continuous sample fluorescence recording. Thermal stability was measured by nano-differential scanning fluorimetry on a Prometheus NT.48 instrument (www.nanotemper-technologies.com) in various buffers covering a pH (7.0–9.5) and temperature range (25–95 °C), with a heating rate of 1 °C min^–1, and using NT melting control software. Protein unfolding was measured by detecting the temperature-induced change in tryptophan fluorescence intensity at emission wavelengths of 330±5 nm and 350±5 nm. The melting temperature (Tm) was deduced from the maximum of the first derivative of the fluorescence ratios F350/F330.

For assay [2], the target named is ZmADK3 N295A variant (Zea mays, UniProt A0A1D6E5Z5, N295A). Briefly: ADK activity, coupled reaction with PK and LDH. The class given is biochemical. To be noted: 100 µM Ado, 10 mM ATP, 30 °C. Here is the method: (§1) All ZmADK3 mutants were cloned by 30 cycle PCRs using tail-to-tail oriented phosphorylated primers, with the mutation being located at the 5′ end of one of the primers. The following mutants were cloned using the primers given in Supplementary Table S1: D19A, R132A, N222A, E225A, N295A, and D299A. The products were treated with DpnI restriction enzyme, gel purified, and ligated using T4 DNA ligase (www.thermofisher.com). Clones were transformed into T7 express I^qE. coli competent cells.
(§2) Substrate analogs were purchased from Sigma-Aldrich (www.sigmaaldrich.com). The ADK activity was measured spectrophotometrically on an Agilent 8453 UV-Vis spectrophotometer (www.agilent.com) at 30 °C using a coupled reaction with pyruvate kinase (PK) and lactate dehydrogenase (LDH) (www.sigmaaldrich.com) ([Blondin et al., 1994]). In this assay, PK converts ADP produced by ADK and phosphoenolpyruvate (PEP) to pyruvate. Subsequently, LDH then converts pyruvate to lactate using the coenzyme NADH, with the conversion monitored at 340 nm. The reaction was conducted in 50 mM Tris–HCl buffer at pH 7.5, containing 50 mM KCl, 6 mM MgCl2, 300 µM PEP, 200 µM NADH, 10 mM ATP, 2 U of PK, and 2.5 U of LDH, using various nucleoside substrates. Kinetic constants were determined using GraphPad Prism 8.0 software (www.graphpad.com). Each measurement was performed six times using repetitive purified enzymes. The activities of all five ADKs were also measured by HPLC ([Moffatt et al., 1991]). The reaction mixture comprised 50 mM Tris–HCl pH 7.5, 5 mM MgCl2, 0.5 mM DTT, 30 mM NaF, 5 mM ATP, 40 µM substrate, and 2–150 ng of purified ADK, depending on the isoform. The reaction was incubated at 30 °C for up to 1 h. […] Similarly, the conversion of cytokinin ribosides to monophosphates was followed on a LiChrosphere 60 RP-Select B (5 µm) LiChroCART column 125-4 column equilibrated with 10 mM triethylamine at pH 5.4 plus 10% methanol, and stepwise eluted with 100% methanol.

In assay [3] the target is ZmADK3 D19A variant (Zea mays, UniProt A0A1D6E5Z5, D19A). Briefly: ADK activity, coupled reaction with PK and LDH. The class given is biochemical. The procedure: as §1, §2
In assay [4] the target is ZmADK3 E225A variant (Zea mays, UniProt A0A1D6E5Z5, E225A). Put plainly: ADK activity, coupled reaction with PK and LDH. The class given is biochemical. To be noted: 100 µM Ado, 10 mM ATP, 30 °C. Here is the method: as §1, §2
Assay [5] has as its target ZmADK3 D299A variant (Zea mays, UniProt A0A1D6E5Z5, D299A). Put plainly: ADK activity, coupled reaction with PK and LDH. The class given is biochemical. To be noted: 100 µM Ado, 10 mM ATP, 30 °C. Here is the method:
as §1, §2

For assay [6], the target named is ZmADK3 N222A variant (Zea mays, UniProt A0A1D6E5Z5, N222A). Put plainly: ADK activity, coupled reaction with PK and LDH. The class given is biochemical. To be noted: 100 µM Ado, 10 mM ATP, 30 °C. The procedure: as §1, §2
In assay [7] the target is ZmADK3 R132A variant (Zea mays, UniProt A0A1D6E5Z5, R132A). Briefly: ADK activity, coupled reaction with PK and LDH. The class given is biochemical. To be noted: 100 µM Ado, 10 mM ATP, 30 °C. Here is the method: as §1, §2
In assay [8] the test system is all five ADKs. Briefly: ADK kinetics, coupled reaction (summary for all isoforms). The class given is biochemical, Zea mays, Physcomitrella patens. To be noted: range over all five ADKs. Here is the method: Substrate analogs were purchased from Sigma-Aldrich (www.sigmaaldrich.com). The ADK activity was measured spectrophotometrically on an Agilent 8453 UV-Vis spectrophotometer (www.agilent.com) at 30 °C using a coupled reaction with pyruvate kinase (PK) and lactate dehydrogenase (LDH) (www.sigmaaldrich.com) ([Blondin et al., 1994]). In this assay, PK converts ADP produced by ADK and phosphoenolpyruvate (PEP) to pyruvate. Subsequently, LDH then converts pyruvate to lactate using the coenzyme NADH, with the conversion monitored at 340 nm. The reaction was conducted in 50 mM Tris–HCl buffer at pH 7.5, containing 50 mM KCl, 6 mM MgCl2, 300 µM PEP, 200 µM NADH, 10 mM ATP, 2 U of PK, and 2.5 U of LDH, using various nucleoside substrates. Kinetic constants were determined using GraphPad Prism 8.0 software (www.graphpad.com). Each measurement was performed six times using repetitive purified enzymes. The activities of all five ADKs were also measured by HPLC ([Moffatt et al., 1991]). The reaction mixture comprised 50 mM Tris–HCl pH 7.5, 5 mM MgCl2, 0.5 mM DTT, 30 mM NaF, 5 mM ATP, 40 µM substrate, and 2–150 ng of purified ADK, depending on the isoform. The reaction was incubated at 30 °C for up to 1 h. […]

The test system of assay [9] is rabbit ADK. On the set-up: method as in Miller et al., 1979a. To be noted: ref Miller et al., 1979a; cited from earlier work.
Assay [10] addresses ZmADK3 (Zea mays, UniProt A0A1D6E5Z5). Put plainly: ADK activity, coupled reaction with PK and LDH. The class given is biochemical. The procedure: Substrate analogs were purchased from Sigma-Aldrich (www.sigmaaldrich.com). […] In this assay, PK converts ADP produced by ADK and phosphoenolpyruvate (PEP) to pyruvate. Subsequently, LDH then converts pyruvate to lactate using the coenzyme NADH, with the conversion monitored at 340 nm. The reaction was conducted in 50 mM Tris–HCl buffer at pH 7.5, containing 50 mM KCl, 6 mM MgCl2, 300 µM PEP, 200 µM NADH, 10 mM ATP, 2 U of PK, and 2.5 U of LDH, using various nucleoside substrates. Kinetic constants were determined using GraphPad Prism 8.0 software (www.graphpad.com). Each measurement was performed six times using repetitive purified enzymes. […] The reaction mixture comprised 50 mM Tris–HCl pH 7.5, 5 mM MgCl2, 0.5 mM DTT, 30 mM NaF, 5 mM ATP, 40 µM substrate, and 2–150 ng of purified ADK, depending on the isoform. The reaction was incubated at 30 °C for up to 1 h.

A word on the Kd: it is a measure of binding affinity in units of concentration. Higher therefore signals lower affinity. What is called Km is the substrate concentration at which the rate is half of its maximum.

Sequence of ZmADK3 (A0A1D6E5Z5 entry or part of it): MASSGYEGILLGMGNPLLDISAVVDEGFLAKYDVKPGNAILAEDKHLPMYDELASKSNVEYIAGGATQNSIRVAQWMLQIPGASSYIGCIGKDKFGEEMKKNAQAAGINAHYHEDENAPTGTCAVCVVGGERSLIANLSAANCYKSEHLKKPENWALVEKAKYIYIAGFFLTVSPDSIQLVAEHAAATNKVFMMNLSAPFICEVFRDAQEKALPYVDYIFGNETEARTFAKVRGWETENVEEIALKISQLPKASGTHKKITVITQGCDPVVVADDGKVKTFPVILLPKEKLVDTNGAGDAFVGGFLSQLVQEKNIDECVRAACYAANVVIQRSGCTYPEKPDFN
Sequence of ZmADK3 D19A variant (A0A1D6E5Z5 entry or part of it D19A): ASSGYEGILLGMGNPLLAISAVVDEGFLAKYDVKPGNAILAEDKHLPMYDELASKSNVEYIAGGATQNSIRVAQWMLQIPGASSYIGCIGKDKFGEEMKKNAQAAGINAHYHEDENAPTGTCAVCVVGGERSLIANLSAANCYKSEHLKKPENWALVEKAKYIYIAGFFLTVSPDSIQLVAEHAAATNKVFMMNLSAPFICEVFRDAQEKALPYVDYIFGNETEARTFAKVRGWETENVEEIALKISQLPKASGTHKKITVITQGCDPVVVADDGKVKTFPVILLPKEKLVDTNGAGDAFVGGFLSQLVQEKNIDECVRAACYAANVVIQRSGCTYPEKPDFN
Sequence of ZmADK3 N295A variant (A0A1D6E5Z5 entry or part of it N295A): as the sequence (A0A1D6E5Z5 entry or part of it D19A) above, with A18D, N294A counted along it
Sequence of ZmADK3 D299A variant (A0A1D6E5Z5 entry or part of it D299A): as the sequence (A0A1D6E5Z5 entry or part of it D19A) above, with A18D, D298A counted along it
Sequence of ZmADK3 E225A variant (A0A1D6E5Z5 entry or part of it E225A): as the sequence (A0A1D6E5Z5 entry or part of it D19A) above, with A18D, E224A counted along it
Sequence of ZmADK3 R132A variant (A0A1D6E5Z5 entry or part of it R132A): as the sequence (A0A1D6E5Z5 entry or part of it D19A) above, with A18D, R131A counted along it
Sequence of ZmADK3 N222A variant (A0A1D6E5Z5 entry or part of it N222A): as the sequence (A0A1D6E5Z5 entry or part of it D19A) above, with A18D, N221A counted along it

`Nc1ncnc2c1ncn2[C@@H]1O[C@H](CO)[C@@H](O)[C@H]1O` [Ado, adenosine] registered a Kd in assay [1] of 400 to 700 nM. The Specific activity stood at 10.1±0.1 nkat mg^–1 in [2]; 3.3±0.4 nkat mg^–1 in [3] (D19A, 100 µM Ado, 10 mM ATP, 30 °C); 1.9±0.4 nkat mg^–1 in [4]; 1.8±0.1 nkat mg^–1 in [5]; 13.4±0.7 nkat mg^–1 in assay [6]; 7.4±0.3 nkat mg^–1 in assay [7]. The Specific activity in assay [10] (WT ZmADK3, 100 µM Ado, 10 mM ATP, 30 °C) came out at 31.0±0.8 nkat mg^–1; in assay [10] (ZmADK3, 100 µM substrate, 10 mM ATP, pH 7.5, 30 °C), 30.0±1.1 nmol s^–1 mg^–1. The “reduction in specific activity” value in [3] (D19A variant of ZmADK3 vs WT, Ado substrate) turned out to be 10 fold. Moreover, the values for the Michaelis-Menten constant (Km) in [8] and in assay [9] were 0.5 to 0.7 µM and 0.4 µM, respectively. The same compound gave a Relative rate in assay [10] (WT ZmADK3, 100 µM Ado, relative to WT) of 100.0%. Also, the kcat in [10] (ZmADK3, 10 mM ATP, pH 7.5, 30 °C) amounted to 1.18±0.03 s^–1.
